# Results: ChEMBL document CHEMBL1201862, “PubChem BioAssay data set” (2004)
# The source made the active and inactive calls.
# Columns and labels:
# [1] = viability of PTEN-deleted HCT116 cells – cell-based, HCT116 PTEN knockout, dose response (AID 1047); format: functional;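 note: HCT116 colon tumor cells with PTEN knocked out; cells exposed to compound for 60 hours before readout; potency for loss of cell viability measured by luminescence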
# [2] = viability of HCT116 lacking mutant beta-catenin – cell-based, human colon tumor, dose response (AID 1045); format: functional;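 note: HCT116 colon tumor cells with beta catenin knocked out; cells exposed to compound for 60 hours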
# HEK293 [3] = test: cells; details: Homo sapiens
# HEK293 [4] = test: cells; details: Homo sapiens; remark: listed apart in the source
# Jurkat [5] = test: SAR Analysis of small molecule inhibitors of […] specific antigen receptor-induced NF-kB activation in a Jurkat cell line using a luminescence assay - Set 3. [Related pubchem assays (depositor defined):AID435022, AID435025, AID465]; format: functional, cell-based; details: Homo sapiens
# HEK293 [6] = test: SAR Analysis of small molecule inhibitors of B-cell specific antigen receptor-induced NF-kB activation in a HEK-293T cell line using a luminescence assay - Set 2. [Related pubchem assays (depositor defined):AID435022, AID435025, AID489021]; format: functional, cell-based; details: Homo sapiens
# HEK293 [7] = test: HEK293T cell viability loss, resazurin readout – resazurin fluorescence, cytotoxicity control for NF-kB activator project, SAR follow-up (AID 493251); format: functional, cell-based; details: Homo sapiens
# HeLa = test: viability loss in HeLa cells – cell-based, 24 h, cherry-picked samples, cytotoxicity control, dose response (AID 504726); format: functional; details: Homo sapiens;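 note: potency for cytotoxicity as loss of luminescence signal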
# ORF 73 = target: T1, ORF 73 (Human herpesvirus 8, UniProt O40947); test: KSHV LANA DNA-binding disruption – biochemical, fluorescence polarization, cherry-picked samples, dose response (AID 504725); design: species or system Human gammaherpesvirus 8;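 note: fluorescence polarization of a labeled DNA duplex reporting LANA DNA binding; potency is for inhibitors that block LANA binding to the DNA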
# T1 sequence (O40947 whole entry): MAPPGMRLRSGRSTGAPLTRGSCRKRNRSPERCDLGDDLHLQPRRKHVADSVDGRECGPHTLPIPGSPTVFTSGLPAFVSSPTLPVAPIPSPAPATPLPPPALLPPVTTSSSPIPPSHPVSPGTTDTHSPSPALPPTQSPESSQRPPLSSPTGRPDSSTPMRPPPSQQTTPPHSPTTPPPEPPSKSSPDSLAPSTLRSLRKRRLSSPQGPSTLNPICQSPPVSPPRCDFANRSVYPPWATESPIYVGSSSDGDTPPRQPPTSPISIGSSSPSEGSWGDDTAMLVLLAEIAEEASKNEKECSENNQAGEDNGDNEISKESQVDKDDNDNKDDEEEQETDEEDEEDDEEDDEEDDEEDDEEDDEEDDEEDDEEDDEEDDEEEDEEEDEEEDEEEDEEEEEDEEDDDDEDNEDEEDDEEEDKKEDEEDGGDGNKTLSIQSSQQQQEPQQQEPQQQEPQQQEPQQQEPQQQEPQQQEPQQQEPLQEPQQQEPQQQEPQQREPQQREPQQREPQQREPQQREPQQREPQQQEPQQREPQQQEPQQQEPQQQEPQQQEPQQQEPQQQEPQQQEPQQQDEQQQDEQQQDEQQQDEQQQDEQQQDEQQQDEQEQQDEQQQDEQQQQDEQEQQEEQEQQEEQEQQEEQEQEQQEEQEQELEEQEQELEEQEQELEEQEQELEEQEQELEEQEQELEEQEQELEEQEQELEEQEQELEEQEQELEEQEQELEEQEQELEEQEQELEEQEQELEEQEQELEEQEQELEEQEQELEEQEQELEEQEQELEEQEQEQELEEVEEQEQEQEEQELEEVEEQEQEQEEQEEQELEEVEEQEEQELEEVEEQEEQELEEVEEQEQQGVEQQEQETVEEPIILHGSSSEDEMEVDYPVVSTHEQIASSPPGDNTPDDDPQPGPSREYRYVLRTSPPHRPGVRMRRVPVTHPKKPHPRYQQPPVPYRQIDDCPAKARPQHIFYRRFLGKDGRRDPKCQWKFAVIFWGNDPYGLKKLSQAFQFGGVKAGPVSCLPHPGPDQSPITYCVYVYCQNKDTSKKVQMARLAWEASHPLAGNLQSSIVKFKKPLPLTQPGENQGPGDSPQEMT
# [8] = target: T2, Endoribonuclease toxin MazF (Escherichia coli K-12, UniProt P0AE70); test: activation of MazEF endoribonuclease cleavage – biochemical, fluorescence, single-stranded RNA substrate, uHTS hits, dose response (AID 588481); format: functional
# T2 sequence (P0AE70 whole entry): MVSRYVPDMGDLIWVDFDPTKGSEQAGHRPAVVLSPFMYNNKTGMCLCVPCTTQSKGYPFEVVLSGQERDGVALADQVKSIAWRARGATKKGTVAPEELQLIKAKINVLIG
# [9] = target: UDP-galactopyranose mutase (Mycobacterium tuberculosis, UniProt P9WIQ1); test: Inhibitors of Mycobacterium tuberculosis UDP-galactopyranose mutase (UGM) enzyme Measured in Biochemical System Using Plate Reader - 2105-02_Inhibitor_Dose_CherryPick_Activity. [Related pubchem assays (depositor defined):AID504439]
# Keap1/Nrf2 = Keap1/Nrf2 (Homo sapiens, UniProt Q14145); test: disruptors of Keap1 binding to Nrf2 peptide – biochemical, fluorescence polarization, cherry-picked samples, dose response (AID 588683)
# [10] = target: T2, Endoribonuclease toxin MazF; test: substrate-only fluorescence increase artefacts – biochemical, single-stranded RNase substrate, counter-screen for MazEF activator project, dose response (AID 588502); format: functional
# [11] = target: E3 ubiquitin-protein ligase Mdm2 (Homo sapiens, UniProt Q00987); test: MDM2-luc reporter signal enhancers, multi-concentration potency testing, MDM2 ubiquitin-protein ligase inhibitor program, whole-cell format, luminescence detection, 384-well microplate (AID 1394); format: functional;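 note: MDM2 E3 inhibitors raise luminescence so EC50 is for signal enhancement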
# Beta-galactosidase = Beta-galactosidase (Escherichia coli, UniProt Q8VNN2); test: PubChem AID 485352; format: functional
# [12] = target: G-protein coupled receptor 55 (Homo sapiens, UniProt Q9Y2T6); test: inhibition of LPI-stimulated GPR55 beta-arrestin translocation – imaging, U2OS, beta-arrestin-GFP, LPI agonist, primary screen (AID 2013); format: functional;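 note: antagonist potency measured as reduced agonist-driven arrestin aggregation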
# [13] = target: T3, Type-1 angiotensin II receptor (Homo sapiens, UniProt P30556); test: antagonism of angiotensin II type 1 receptor – cell-based, uHTS hits, selectivity assay for APJ receptor antagonist project, dose response (AID 463214); format: functional;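 note: antagonist potency against angiotensin II stimulated AT1 response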
# T3 sequence (P30556 whole entry): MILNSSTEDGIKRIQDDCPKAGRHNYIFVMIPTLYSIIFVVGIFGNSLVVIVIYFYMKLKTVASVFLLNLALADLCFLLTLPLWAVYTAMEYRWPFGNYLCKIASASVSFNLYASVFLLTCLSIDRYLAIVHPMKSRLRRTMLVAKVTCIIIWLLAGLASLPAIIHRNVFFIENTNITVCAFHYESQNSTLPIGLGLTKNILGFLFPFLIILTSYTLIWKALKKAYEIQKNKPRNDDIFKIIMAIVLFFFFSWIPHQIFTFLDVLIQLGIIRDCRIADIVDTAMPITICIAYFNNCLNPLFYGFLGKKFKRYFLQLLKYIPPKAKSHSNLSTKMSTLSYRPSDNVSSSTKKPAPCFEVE
# Jurkat [14] = test: blockers of NF-kB activation in T cells – Jurkat, luciferase reporter, luminescence, B- and T-cell, dose response (AID 489004); format: functional, cell-based; details: Homo sapiens;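 note: NF-kB luciferase reporter Jurkat cells stimulated with PMA plus ionomycin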
# [15] = HEK-293T viability loss, compound-treated – cell-based, uHTS hits, cytotoxicity control for B/T-cell NF-kB inhibitor project, dose response (AID 489019); format: functional;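 note: IC50 reflects cytotoxicity as loss of cell viability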
# INS1 = test: INS-1E survival protection against cytokine death – cell-based, luminescence, retest, dose response (AID 449756); format: functional; details: Rattus norvegicus;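 note: cell death triggered by IL-1 beta plus TNF-alpha plus IFN-gamma mixture; protective hits raise ATP signal compared with cytokine alone wells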
# Paired box protein Pax-8 = Paired box protein Pax-8 (Homo sapiens, UniProt Q06710); test: PAX8 transcriptional activity inhibition in RMG-I – RMG-I cells, luciferase, cherry-pick, dose response (AID 687027); format: functional, cell-based;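 note: luciferase reporter driven by Pax8 target thyroperoxidase promoter measured by SteadyGlo luminescence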
# [16] = NIH-3T3 fibroblast cytotoxicity, dose response, cytotoxicity control, cell-based, fluorescence, Alamar Blue, secondary assay (AID 2327); format: functional;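 note: NIH-3T3 mouse fibroblasts cultured with fluconazole at 8 µg/mL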
# [17] = tested on: Streptococcus sp. 'group A'; test: Streptococcus pyogenes SK(-)GAS viability under kanamycin – luminescence, BacTiterGlo, confirmation, counter-screen for streptokinase expression inhibitor project, dose response (AID 1900); format: functional, organism-based
# [18] = fluconazole-exposed Candida albicans growth modulators – fluorescence, retest, confirmation (AID 2467); format: functional, cell-based
# [19] = Trypanosoma cruzi growth suppression in host cells – NIH3T3 host cells, beta-gal luminescence, confirmation (AID 2044); format: functional, cell-based;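 note: intracellular parasites grown in NIH/3T3 mouse fibroblasts as host cells; luminescent beta-galactosidase reporter signal from transgenic T. cruzi replicating inside host cells; inhibitors lower the luminescence signal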
# [20] = microbe, parasite or virus in culture; format: functional; details: Mycobacterium tuberculosis
# [21] = target: T4, Serine/threonine-protein phosphatase (Candida dubliniensis (strain CD36 / CBS 7987 / NCPF 3949 / NRRLY-17841) (Yeast), UniProt B9W6M3); test: blockers of CaCl2-induced CDRE-lacZ signaling – S. cerevisiae, luminescence, secondary, dose response (AID 2388); format: functional, cell-based;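 note: yeast reporter cells carrying a calcineurin-responsive lacZ construct stimulated with calcium chloride; luminescent beta-galactosidase reporter signal in whole cells rather than isolated phosphatase activity; potency for inhibition where a drop in reporter signal means calcineurin blockade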
# T4 sequence (B9W6M3 whole entry): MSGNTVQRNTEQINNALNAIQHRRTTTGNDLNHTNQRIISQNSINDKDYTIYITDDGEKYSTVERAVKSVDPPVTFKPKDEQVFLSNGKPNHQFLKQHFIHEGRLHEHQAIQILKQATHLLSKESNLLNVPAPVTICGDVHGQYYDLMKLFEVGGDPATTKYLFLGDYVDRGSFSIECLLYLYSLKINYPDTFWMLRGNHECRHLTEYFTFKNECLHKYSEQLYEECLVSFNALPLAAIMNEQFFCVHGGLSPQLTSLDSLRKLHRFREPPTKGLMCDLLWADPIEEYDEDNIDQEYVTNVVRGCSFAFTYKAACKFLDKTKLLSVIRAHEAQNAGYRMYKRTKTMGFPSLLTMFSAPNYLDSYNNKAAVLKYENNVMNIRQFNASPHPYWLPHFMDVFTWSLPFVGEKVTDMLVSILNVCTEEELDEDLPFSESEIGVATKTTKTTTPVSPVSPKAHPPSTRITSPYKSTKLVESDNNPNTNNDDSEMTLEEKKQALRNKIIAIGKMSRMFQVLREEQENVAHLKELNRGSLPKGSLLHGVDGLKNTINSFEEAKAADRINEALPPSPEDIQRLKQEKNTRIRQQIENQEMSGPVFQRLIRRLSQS
# [22] = NIH3T3 cell viability loss – ATP luminescence, mouse fibroblasts, counter-screen, dose response (AID 2010); format: functional, cell-based;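 note: cells exposed to compound for about 90 hours before reading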
# Streptococcus = test: GAS UMAA2166 growth inhibition – luminescence, BacTiterGlo, counter-screen for streptokinase expression inhibitor project, dose response (AID 1915); format: functional, organism-based;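 note: potency for reduction of bacterial viability or growth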
# [23] = target: Heat shock protein HSP 90-alpha (Homo sapiens, UniProt P07900); format: functional, organism-based
# [24] = target: T4, Serine/threonine-protein phosphatase; test: Fluorescence Cell-Based Secondary Assay to Identify Inhibitors of Calcineurin. [Related pubchem assays (depositor defined):AID1979, AID2007]; format: functional
# Vero = test: cells; format: functional; details: Chlorocebus sabaeus
# [25] = target: ATP-dependent molecular chaperone HSP82 (Candida albicans (strain WO-1) (Yeast), UniProt C4YTQ8); test: steroid-induced GRE reporter decrease in yeast – S. cerevisiae, luminescence, Hsp90 inhibitor project, dose response (AID 2400); format: functional, cell-based;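 note: beta-galactosidase luminescence from glucocorticoid response element reporter as proxy for Hsp90 function; inhibitor potency where signal loss means Hsp90 inhibition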
# Chain of ATP-dependent molecular chaperone HSP82 (C4YTQ8 whole entry): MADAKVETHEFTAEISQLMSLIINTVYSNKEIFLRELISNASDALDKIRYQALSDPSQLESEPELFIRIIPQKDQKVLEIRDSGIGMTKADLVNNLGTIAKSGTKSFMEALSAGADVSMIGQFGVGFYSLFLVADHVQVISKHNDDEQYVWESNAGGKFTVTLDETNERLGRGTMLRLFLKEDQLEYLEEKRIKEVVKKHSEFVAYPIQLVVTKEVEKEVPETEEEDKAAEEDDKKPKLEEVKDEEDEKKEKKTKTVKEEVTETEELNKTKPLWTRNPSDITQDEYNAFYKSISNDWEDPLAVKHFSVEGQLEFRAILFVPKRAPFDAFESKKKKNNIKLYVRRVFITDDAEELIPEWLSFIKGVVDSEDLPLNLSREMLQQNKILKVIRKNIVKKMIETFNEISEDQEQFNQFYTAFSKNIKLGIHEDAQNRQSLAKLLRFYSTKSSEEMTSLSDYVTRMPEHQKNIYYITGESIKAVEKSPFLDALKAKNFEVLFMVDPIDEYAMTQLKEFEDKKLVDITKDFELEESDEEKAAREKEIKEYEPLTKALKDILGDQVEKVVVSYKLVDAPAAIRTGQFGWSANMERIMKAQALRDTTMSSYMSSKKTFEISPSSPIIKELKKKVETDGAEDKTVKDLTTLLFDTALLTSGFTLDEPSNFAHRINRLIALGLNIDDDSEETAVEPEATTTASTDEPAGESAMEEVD
# Chain of UDP-galactopyranose mutase (P9WIQ1 whole entry): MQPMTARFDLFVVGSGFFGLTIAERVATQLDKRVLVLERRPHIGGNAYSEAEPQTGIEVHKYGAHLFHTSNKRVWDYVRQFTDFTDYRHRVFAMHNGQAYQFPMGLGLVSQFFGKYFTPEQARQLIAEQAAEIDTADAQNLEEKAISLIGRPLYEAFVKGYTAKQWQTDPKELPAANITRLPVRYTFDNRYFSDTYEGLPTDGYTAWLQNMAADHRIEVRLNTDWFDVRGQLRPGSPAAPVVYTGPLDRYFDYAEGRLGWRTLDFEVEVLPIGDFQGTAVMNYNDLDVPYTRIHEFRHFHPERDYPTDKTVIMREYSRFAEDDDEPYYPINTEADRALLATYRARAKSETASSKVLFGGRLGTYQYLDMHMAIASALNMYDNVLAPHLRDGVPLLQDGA
# Chain of Paired box protein Pax-8 (Q06710 whole entry): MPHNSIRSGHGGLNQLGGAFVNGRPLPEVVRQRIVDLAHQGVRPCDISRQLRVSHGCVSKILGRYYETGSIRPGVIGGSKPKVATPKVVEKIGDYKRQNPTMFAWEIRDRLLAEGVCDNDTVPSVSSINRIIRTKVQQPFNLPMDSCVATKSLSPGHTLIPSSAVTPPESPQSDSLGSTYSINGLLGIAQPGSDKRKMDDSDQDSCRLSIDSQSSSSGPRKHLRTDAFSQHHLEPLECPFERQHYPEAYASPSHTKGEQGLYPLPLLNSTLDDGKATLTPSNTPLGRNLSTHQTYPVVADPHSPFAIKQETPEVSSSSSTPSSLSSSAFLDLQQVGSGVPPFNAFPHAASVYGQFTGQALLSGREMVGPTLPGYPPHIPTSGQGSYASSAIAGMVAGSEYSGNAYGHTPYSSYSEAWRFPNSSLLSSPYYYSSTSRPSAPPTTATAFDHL
# Chain of E3 ubiquitin-protein ligase Mdm2 (Q00987 whole entry): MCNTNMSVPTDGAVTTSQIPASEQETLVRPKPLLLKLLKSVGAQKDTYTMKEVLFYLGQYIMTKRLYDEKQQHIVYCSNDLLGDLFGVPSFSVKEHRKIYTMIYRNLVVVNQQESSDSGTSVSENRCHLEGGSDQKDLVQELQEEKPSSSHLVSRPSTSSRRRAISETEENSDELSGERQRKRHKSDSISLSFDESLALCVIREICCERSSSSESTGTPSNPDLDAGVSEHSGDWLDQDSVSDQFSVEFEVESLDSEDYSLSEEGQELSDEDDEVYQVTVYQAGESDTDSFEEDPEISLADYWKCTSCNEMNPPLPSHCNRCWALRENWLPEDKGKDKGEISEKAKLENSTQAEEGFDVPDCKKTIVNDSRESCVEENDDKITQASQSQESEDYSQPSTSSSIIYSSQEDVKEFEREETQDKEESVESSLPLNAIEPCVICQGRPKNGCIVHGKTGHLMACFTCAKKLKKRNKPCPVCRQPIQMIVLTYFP
# Chain of G-protein coupled receptor 55 (Q9Y2T6 whole entry): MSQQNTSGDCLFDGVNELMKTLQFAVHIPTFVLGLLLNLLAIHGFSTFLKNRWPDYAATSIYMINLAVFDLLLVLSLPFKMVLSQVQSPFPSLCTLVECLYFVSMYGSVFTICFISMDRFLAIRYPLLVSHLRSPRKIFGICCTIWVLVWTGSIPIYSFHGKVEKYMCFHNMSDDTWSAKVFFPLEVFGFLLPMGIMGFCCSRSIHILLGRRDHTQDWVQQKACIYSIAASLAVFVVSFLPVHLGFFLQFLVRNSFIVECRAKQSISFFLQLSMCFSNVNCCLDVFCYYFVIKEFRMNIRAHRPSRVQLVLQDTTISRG
# Chain of Beta-galactosidase (Q8VNN2 whole entry): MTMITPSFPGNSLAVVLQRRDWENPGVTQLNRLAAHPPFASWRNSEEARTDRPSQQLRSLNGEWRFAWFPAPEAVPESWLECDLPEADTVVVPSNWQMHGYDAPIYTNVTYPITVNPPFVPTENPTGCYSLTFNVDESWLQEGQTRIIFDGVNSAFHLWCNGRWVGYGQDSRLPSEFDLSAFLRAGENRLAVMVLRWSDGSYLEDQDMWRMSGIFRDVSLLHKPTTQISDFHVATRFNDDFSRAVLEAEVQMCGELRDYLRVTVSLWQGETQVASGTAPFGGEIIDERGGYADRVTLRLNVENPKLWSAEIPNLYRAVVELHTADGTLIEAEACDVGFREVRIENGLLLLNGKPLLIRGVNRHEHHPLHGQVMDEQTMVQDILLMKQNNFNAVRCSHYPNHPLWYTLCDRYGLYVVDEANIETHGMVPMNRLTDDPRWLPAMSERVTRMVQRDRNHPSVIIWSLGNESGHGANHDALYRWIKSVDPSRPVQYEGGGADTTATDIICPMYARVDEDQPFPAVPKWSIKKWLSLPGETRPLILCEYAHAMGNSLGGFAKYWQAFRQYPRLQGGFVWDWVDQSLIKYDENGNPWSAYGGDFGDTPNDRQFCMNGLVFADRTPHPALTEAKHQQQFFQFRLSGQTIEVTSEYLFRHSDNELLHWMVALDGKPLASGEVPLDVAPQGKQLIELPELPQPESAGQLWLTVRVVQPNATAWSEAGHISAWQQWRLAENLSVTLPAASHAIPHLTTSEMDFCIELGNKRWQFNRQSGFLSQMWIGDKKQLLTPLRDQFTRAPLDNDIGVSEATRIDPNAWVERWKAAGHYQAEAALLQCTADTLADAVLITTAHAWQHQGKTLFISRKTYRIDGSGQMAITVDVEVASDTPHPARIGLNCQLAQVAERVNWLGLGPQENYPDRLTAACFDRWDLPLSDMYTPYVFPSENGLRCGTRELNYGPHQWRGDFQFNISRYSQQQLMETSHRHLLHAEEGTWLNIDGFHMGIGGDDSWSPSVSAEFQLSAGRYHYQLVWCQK
# Chain of Keap1/Nrf2 (Q16236 whole entry): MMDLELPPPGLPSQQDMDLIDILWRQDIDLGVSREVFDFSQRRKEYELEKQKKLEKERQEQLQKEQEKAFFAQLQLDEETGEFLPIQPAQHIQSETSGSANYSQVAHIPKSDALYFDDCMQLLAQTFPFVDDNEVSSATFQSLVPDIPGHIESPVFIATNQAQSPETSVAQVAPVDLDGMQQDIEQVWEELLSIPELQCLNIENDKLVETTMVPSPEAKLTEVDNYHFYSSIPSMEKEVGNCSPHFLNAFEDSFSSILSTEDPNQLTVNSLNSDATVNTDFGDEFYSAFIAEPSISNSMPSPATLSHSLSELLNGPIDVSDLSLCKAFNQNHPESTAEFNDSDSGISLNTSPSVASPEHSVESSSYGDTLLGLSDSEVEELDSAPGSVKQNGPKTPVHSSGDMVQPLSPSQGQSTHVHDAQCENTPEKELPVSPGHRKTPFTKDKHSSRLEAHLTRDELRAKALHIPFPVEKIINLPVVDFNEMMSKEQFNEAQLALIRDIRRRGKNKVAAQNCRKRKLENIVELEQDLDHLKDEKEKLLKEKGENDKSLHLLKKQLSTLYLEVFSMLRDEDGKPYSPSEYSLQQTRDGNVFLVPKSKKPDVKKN
# Chain of Keap1/Nrf2 (Q14145 whole entry): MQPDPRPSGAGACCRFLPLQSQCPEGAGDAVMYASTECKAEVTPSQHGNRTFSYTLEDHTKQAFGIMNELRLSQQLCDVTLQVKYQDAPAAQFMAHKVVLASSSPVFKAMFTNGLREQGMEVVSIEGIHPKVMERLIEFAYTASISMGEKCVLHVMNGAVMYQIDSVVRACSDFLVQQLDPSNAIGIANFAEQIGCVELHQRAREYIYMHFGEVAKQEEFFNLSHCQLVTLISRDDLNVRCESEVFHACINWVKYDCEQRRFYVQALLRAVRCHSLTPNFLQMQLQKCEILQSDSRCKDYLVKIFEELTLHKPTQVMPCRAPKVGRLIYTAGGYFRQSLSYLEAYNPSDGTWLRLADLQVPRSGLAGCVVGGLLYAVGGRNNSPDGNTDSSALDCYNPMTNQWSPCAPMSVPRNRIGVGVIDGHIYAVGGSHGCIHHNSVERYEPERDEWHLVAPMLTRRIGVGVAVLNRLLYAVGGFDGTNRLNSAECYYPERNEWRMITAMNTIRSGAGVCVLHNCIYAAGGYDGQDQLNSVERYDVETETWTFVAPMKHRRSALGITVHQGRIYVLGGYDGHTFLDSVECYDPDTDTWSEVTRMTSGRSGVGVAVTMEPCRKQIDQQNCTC
compound,measurement,setting,value
CC1=CC(C)(C)Nc2ccc(OC(=O)CCN3C(=O)c4ccccc4C3=O)cc21,EC50,[1],10.8 µM (active)
same,EC50,[2],6.3 µM (active)
same,EC50,HEK293 [3],> 59.6 µM (inactive)
same,EC50,HEK293 [4],> 59.6 µM (inactive)
CC(C)(C)c1ccc(-c2noc(CCC(=O)NC3CCCCC3)n2)cc1,IC50,Jurkat [5],19.9 µM (active)
same,IC50,HEK293 [6],2.68 µM (active)
same,IC50,HEK293 [7],> 80 µM (inactive)
Cn1nc(-c2ccccc2)c2nc3ccccc3nc21,AC50,HeLa,44.5 µM (active)
same,AC50,ORF 73,42.5 µM (active)
same,EC50,[8],> 99 µM (inactive)
same,AC50,[9],11.3 µM (active)
same,AC50,Keap1/Nrf2,14 µM (active)
same,EC50,[10],> 99 µM (inactive)
C=C1C(=O)O[C@@H]2C[C@@H](C)[C@@H]3C=CC(=O)[C@@]3(C)[C@@H](OC(C)=O)[C@H]12 [ANGUSTIBALIN],EC50,[11],7.68 µM (not active)
same,EC50,Beta-galactosidase,> 40 µM (inactive)
same,IC50,[12],4.49 µM (active)
same,IC50,[13],22 µM (not active)
same,IC50,Jurkat [14],0.99 µM (active)
same,IC50,[15],> 80 µM (inactive)
same,AC50,INS1,2.13 µM (active)
same,AC50,Paired box protein Pax-8,0.742 µM (active)
O=C(Oc1c(Cl)cc(Cl)c2cccnc12)c1cccs1,EC50,[16],27.3 µM (active)
same,EC50,[17],1.47 µM (active)
same,EC50,[18],0.122 µM (active)
same,EC50,[19],2.41 µM (active)
same,CC50,[20],17.3 µM (active)
same,EC50,[21],> 180 µM (inactive)
same,EC50,[22],9.43 µM (active)
same,EC50,Streptococcus,1.27 µM (active)
same,AC50,[23],3.28 µM (active)
same,EC50,[24],> 285 µM (inactive)
same,AC50,INS1,8.83 µM (active)
same,CC50,Vero,16.5 µM (active)
same,EC50,[25],16 µM (active)
